Results on 28 molecules are retold here after US9790228B2, “Heterocyclic kinase inhibitors” (Intellikine LLC, priority 2008, dated 2017).

The target of assay [1] is p110δ/p85α (Homo sapiens (Human), UniProt O00329). Briefly: PI3K δ inhibition assay (TLC lipid kinase or HTRF). It counts as biochemical. The method, boiled down:
(§1)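 IC50 from TLC lipid kinase assay (25 mM HEPES pH 7.4, 10 mM MgCl2, 100 μg/ml phosphatidylinositol, 10 or 100 μM γ-32P-ATP, 5 min RT, phosphorimager) at 10–12 two-fold dilutions, or HTRF (10 μM PIP2, 10 μM ATP, 1 h RT) measuring PIP3 by TR-FRET; 2% DMSO final.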
In general terms: In TR-FRET formats the signal depends on donor and acceptor labels being close together.

Assay [2] has as its target p110γ (Homo sapiens (Human), UniProt P48736). Briefly: PI3K γ inhibition assay (TLC lipid kinase or HTRF). It counts as biochemical. Summed up:
as §1

The target of assay [3] is p110α/p85α (Homo sapiens (Human), UniProt P42336). Put plainly: PI3K α inhibition assay (TLC lipid kinase or HTRF). It is filed as biochemical. Summed up: as §1
The target in assay [4] is p110β/p85α (Homo sapiens, UniProt P42338). Briefly: PI3K β inhibition assay (TLC lipid kinase or HTRF). It is filed as biochemical. The note with it: read-out: PI3K β IC50. The method, boiled down:
as §1

Assay [5] relates to Balb/c splenic B cells. Briefly: B cell activation and proliferation assay (Alamar Blue). It is filed as cell-based, mouse. The note with it: Mus musculus, B-cell. Here is the method:
The ability of one or more subject compounds to inhibit B cell activation and proliferation is determined according to standard procedures known in the art. For example, an in vitro cellular proliferation assay is established that measures the metabolic activity of live cells. The assay is performed in a 96 well microtiter plate using Alamar Blue reduction. Balb/c splenic B cells are purified over a Ficoll-Paque™ PLUS gradient followed by magnetic cell separation using a MACS B cell Isolation Kit (Miletenyi). Cells are plated in 90 ul at 50,000 cells/well in B Cell Media (RPMI+10% FBS+Penn/Strep+50 uM bME+5 mM HEPES). A compound disclosed herein is diluted in B Cell Media and added in a 10 ul volume. Plates are incubated for 30 min at 37 C and 5% CO2 (0.2% DMSO final concentration). A 50 ul B cell stimulation cocktail is then added containing either 10 ug/ml LPS or 5 ug/ml F(ab′)2 Donkey anti-mouse IgM plus 2 ng/ml recombinant mouse IL4 in B Cell Media. Plates are incubated for 72 hours at 37° C. and 5% CO2. A volume of 15 uL of Alamar Blue reagent is added to each well and plates are incubated for 5 hours at 37 C and 5% CO2. Alamar Blue fluoresce is read at 560Ex/590Em, and IC50 or EC50 values are calculated using GraphPad Prism 5.
(In general: Alamar Blue is a resazurin reagent that responds to reducing activity.)

p110γ, sequence (P48736 whole entry): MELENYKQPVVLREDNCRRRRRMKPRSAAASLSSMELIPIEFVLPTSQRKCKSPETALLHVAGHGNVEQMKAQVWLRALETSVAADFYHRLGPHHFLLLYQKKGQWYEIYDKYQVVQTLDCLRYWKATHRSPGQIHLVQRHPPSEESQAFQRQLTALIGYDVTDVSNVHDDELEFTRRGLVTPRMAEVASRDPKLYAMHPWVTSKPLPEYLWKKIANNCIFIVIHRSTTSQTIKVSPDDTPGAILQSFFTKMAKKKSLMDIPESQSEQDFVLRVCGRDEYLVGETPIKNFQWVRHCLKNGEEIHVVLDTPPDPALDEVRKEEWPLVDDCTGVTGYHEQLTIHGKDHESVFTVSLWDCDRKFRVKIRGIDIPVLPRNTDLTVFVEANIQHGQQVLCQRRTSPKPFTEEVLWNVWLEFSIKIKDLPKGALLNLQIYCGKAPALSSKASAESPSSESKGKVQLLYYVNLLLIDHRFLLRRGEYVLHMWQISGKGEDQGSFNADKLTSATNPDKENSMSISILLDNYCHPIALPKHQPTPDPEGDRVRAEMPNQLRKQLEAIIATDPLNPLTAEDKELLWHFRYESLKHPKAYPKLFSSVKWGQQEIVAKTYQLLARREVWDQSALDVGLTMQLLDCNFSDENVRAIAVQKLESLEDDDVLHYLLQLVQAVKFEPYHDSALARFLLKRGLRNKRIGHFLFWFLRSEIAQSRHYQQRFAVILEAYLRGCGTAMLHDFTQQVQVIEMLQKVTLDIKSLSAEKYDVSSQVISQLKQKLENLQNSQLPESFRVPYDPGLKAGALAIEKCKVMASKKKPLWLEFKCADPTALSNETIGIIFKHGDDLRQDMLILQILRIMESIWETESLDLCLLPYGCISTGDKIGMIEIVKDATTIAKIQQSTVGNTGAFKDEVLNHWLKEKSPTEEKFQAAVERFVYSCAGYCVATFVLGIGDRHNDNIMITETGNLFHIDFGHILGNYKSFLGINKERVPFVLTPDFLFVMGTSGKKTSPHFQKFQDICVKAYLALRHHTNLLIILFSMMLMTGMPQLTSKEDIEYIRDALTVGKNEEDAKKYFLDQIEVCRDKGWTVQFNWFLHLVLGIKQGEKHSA
p110δ/p85α, sequence (O00329 whole entry): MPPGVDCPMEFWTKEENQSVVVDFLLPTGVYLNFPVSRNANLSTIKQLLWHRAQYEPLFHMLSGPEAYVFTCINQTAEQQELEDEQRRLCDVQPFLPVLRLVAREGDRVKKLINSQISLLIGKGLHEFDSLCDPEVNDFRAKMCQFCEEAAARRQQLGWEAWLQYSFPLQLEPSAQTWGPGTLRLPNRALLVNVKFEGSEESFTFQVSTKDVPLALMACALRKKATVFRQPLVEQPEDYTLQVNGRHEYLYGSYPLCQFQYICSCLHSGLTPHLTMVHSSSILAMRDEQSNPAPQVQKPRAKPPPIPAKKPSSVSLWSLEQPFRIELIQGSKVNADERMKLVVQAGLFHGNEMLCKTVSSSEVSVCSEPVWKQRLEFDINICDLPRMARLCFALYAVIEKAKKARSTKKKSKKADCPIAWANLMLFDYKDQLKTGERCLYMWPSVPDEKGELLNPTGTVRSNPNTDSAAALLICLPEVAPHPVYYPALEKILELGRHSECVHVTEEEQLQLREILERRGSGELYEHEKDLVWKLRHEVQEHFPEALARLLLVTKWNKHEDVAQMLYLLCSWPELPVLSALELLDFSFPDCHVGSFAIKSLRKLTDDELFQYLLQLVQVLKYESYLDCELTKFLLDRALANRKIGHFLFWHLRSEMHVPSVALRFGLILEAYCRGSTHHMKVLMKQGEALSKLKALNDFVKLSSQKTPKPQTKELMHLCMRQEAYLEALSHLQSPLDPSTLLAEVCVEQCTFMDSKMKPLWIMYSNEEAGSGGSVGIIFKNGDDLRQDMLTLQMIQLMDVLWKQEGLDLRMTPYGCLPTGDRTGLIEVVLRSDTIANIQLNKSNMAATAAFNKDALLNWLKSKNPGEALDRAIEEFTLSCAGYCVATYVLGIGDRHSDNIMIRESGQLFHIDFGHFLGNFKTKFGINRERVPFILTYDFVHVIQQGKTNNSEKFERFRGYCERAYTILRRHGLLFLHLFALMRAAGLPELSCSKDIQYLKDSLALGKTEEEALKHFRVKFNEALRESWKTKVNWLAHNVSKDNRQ
p110δ/p85α, sequence (P27986 whole entry partner): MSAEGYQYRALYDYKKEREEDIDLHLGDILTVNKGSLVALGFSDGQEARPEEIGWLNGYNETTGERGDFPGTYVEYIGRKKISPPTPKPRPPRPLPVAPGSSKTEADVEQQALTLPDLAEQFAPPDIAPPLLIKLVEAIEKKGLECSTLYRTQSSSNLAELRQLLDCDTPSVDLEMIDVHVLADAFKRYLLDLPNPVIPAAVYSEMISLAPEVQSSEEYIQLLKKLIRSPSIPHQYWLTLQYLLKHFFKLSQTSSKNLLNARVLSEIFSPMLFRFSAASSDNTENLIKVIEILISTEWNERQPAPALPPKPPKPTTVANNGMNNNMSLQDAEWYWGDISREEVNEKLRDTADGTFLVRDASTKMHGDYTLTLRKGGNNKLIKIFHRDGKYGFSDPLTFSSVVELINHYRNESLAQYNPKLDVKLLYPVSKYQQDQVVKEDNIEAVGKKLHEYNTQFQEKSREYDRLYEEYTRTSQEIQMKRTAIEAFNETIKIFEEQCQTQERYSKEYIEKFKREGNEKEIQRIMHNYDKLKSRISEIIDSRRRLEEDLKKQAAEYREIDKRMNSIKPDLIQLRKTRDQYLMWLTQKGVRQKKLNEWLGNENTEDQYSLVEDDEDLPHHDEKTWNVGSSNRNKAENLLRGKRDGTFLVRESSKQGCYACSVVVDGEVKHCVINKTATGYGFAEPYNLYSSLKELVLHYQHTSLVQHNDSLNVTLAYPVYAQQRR
p110β/p85α, sequence (P42338 whole entry, looked up): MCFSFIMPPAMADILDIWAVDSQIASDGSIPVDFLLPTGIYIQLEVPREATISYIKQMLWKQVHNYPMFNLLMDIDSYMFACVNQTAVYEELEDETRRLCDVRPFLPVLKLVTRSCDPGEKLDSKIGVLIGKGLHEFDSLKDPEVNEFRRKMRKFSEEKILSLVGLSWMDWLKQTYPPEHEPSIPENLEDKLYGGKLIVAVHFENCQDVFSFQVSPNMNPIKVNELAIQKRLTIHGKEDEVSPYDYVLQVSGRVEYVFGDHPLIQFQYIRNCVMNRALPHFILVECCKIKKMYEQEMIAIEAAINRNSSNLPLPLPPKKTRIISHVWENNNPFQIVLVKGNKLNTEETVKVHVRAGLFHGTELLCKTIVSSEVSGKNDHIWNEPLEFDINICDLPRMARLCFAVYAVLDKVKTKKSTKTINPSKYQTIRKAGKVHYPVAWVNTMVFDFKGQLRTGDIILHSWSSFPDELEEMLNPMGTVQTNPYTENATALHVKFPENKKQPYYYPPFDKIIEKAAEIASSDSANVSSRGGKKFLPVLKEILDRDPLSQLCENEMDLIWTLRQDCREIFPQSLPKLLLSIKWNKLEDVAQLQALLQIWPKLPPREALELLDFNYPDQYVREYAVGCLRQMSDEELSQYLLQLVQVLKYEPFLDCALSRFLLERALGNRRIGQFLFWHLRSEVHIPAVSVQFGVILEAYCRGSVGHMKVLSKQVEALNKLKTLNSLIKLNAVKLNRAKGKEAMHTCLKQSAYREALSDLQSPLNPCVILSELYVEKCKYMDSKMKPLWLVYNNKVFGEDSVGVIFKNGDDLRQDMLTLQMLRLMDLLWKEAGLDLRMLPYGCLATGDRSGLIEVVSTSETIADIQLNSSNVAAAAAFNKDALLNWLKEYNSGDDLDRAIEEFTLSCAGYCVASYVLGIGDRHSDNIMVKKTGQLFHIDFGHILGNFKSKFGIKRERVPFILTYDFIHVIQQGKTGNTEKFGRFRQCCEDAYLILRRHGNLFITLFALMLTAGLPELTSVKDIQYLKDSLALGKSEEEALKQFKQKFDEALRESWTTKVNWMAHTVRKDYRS
p110α/p85α, sequence (P42336 whole entry): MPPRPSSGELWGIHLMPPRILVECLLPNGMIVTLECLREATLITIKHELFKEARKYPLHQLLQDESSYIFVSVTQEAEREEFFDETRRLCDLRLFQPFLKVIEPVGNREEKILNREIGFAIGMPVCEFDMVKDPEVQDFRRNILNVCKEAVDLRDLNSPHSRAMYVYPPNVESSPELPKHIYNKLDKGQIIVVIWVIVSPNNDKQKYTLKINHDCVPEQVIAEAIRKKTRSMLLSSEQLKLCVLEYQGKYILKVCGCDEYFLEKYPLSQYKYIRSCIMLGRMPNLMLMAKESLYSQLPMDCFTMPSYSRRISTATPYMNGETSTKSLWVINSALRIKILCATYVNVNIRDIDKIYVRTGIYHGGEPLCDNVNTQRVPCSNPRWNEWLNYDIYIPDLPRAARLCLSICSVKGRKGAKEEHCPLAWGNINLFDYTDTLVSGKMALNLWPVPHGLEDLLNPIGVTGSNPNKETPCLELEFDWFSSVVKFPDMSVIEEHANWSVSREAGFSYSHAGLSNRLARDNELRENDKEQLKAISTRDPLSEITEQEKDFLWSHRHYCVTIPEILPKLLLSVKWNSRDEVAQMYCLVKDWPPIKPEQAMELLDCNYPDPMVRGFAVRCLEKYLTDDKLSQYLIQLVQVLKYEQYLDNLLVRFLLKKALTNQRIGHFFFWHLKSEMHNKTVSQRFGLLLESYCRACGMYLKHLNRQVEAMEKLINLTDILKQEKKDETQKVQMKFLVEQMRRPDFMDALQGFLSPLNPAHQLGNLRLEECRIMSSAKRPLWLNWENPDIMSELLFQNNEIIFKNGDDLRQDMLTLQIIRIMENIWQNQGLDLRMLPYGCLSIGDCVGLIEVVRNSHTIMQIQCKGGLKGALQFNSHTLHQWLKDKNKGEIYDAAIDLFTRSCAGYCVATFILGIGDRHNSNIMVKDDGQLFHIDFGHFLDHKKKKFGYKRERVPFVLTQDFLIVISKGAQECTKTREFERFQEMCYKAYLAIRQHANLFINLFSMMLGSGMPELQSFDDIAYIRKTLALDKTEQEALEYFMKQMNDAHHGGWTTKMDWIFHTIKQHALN
p110α/p85α, sequence (P27986 whole entry partner): as the sequence (P27986 whole entry partner) above

One may read the IC50 as the concentration that inhibits the measured activity by half. Broadly, the EC50 is the midpoint of the concentration-response curve. A higher EC50 goes with lower potency in that assay. For `Nc1ncc2cc(-c3nn(Cc4cc5ccccc5nc4-c4ccccc4F)c4ncnc(N)c34)ccc2n1` [Compound 135], the concentration for half-maximal inhibition (IC50) in assay [1] was less than 100 nM; in assay [2], less than 100 nM; in assay [3] it was 100 to 1000 nM; in assay [4] it was greater than 1000 nM. The EC50 in assay [5] is less than 100 nM.
Turning to `Nc1nc2cc(-c3nn(Cc4cc5ccccc5nc4-c4ccccc4F)c4ncnc(N)c34)ccc2o1` [Compound 137], the half-maximal inhibitory concentration (IC50) is less than 100 nM in assay [1], less than 100 nM in assay [2], greater than 1000 nM in assay [3] and greater than 1000 nM in assay [4]. Also, in assay [5], the 50% effective concentration (EC50) was in the range of 100 to 1000 nM.
For the molecule `Nc1ncnc2c1c(-c1cc(O)cc(F)c1)nn2Cc1cc2ccccc2nc1N1CCCC1` [Compound 2], the IC50 in assay [1] is less than 100 nM; in assay [2], less than 100 nM; in assay [3], greater than 1000 nM; in assay [4] it was 100 to 1000 nM. Also, the EC50 in assay [5] is less than 100 nM.
For the molecule `CC(=O)Nc1nc2ccc(-c3nn(Cc4cc5ccccc5nc4N4CCN(C)CC4)c4ncnc(N)c34)cc2[nH]1` [Compound 185], the half-maximal inhibitory concentration (IC50) is less than 100 nM in assay [1], greater than 1000 nM in assay [2], greater than 1000 nM in assay [3] and 100 to 1000 nM in assay [4]. This molecule also had an EC50 in assay [5] of less than 100 nM.
For the molecule `Nc1ncnc2c1c(-c1cc(O)cc(F)c1)nn2Cc1cc2ccccc2nc1CCN1CCCC1` [Compound 165], the IC50 was less than 100 nM in assay [1], greater than 1000 nM in assay [2], greater than 1000 nM in assay [3] and 100 to 1000 nM in assay [4]. The same molecule yielded an EC50 in assay [5] of less than 100 nM.
Consider `CC(C)Oc1nc2ccccc2cc1Cn1nc(-c2ccc3nc(N)sc3c2)c2c(N)ncnc21` [Compound 159], for which the IC50 in assay [1] was less than 100 nM; in assay [2], less than 100 nM; in assay [3], 100 to 1000 nM; in assay [4] it was greater than 1000 nM. In assay [5], this molecule yielded an EC50 greater than 1000 nM.
For the molecule `Nc1nc2cc(-c3nn(Cc4cc5ccccc5nc4N4CCOCC4)c4ncnc(N)c34)ccc2o1` [Compound 141], the IC50 in assay [1] is less than 100 nM; in assay [2] it was less than 100 nM; in assay [3], 100 to 1000 nM; in assay [4], greater than 1000 nM. For the same molecule, in assay [5], the EC50 is less than 100 nM.
For `Nc1ncnc2c1c(-c1cc(O)cc(F)c1)nn2Cc1cc2ccccc2nc1NCCN1CCOCC1` [Compound 75], the IC50 in assay [1] is less than 100 nM; in assay [2] it was greater than 1000 nM; in assay [3], greater than 1000 nM; in assay [4], greater than 1000 nM. Besides, the concentration for a half-maximal effect (EC50) in assay [5] is less than 100 nM.
Regarding `CC(=O)Nc1nc2ccc(-c3nn(Cc4cc5ccccc5nc4N(C)C)c4ncnc(N)c34)cc2s1` [Compound 130], the half-inhibitory concentration (IC50) in assay [1], in assay [2], in assay [3] and in assay [4] was less than 100 nM throughout. In assay [5], this molecule returned an EC50 of less than 100 nM.
Turning to `Nc1ncnc2c1c(-c1ccc3cn[nH]c3c1)nn2CC1=Cc2ccccc2NC1N1CCCC1` (centres unmarked) [Compound 81], the IC50 in assay [1] is less than 100 nM; in assay [2], greater than 1000 nM; in assay [3] it was greater than 1000 nM; in assay [4] it was greater than 1000 nM. This molecule also had an EC50 in assay [5] of 100 to 1000 nM.
Regarding `CC(C)N(C)c1nc2ccccc2cc1Cn1nc(-c2ccc3nc(N)[nH]c3c2)c2c(N)ncnc21` [Compound 184], the 50% inhibitory concentration (IC50) in assay [1] was less than 100 nM; in assay [2] it was less than 100 nM; in assay [3], greater than 1000 nM; in assay [4], greater than 1000 nM. This molecule also yielded a half-maximal effective concentration (EC50) in assay [5] of 100 to 1000 nM.
Take `CN1CCN(c2nc3ccccc3cc2Cn2nc(-c3ccc4cc(N)sc4c3)c3c(N)ccnc32)CC1` [Compound 80]: the concentration for half-maximal inhibition (IC50) in assay [1], in assay [2], in assay [3] and in assay [4] was less than 100 nM each time. The molecule also had an EC50 in assay [5] of less than 100 nM.
Take `CC(=O)Nc1nc2ccc(-c3nn(Cc4cc5ccccc5nc4N4CCCC4)c4ncnc(N)c34)cc2s1` [Compound 195]: the half-inhibitory concentration (IC50) was less than 100 nM in assay [1], less than 100 nM in assay [2], less than 100 nM in assay [3] and greater than 1000 nM in assay [4]. Besides, the EC50 in assay [5] was less than 100 nM.
Consider `CC(=O)Nc1nc2ccc(-c3nn(Cc4cc5ccccc5nc4-n4cnc(C)c4)c4ncnc(N)c34)cc2s1` [Compound 171], for which the IC50 in assay [1] is less than 100 nM; in assay [2], less than 100 nM; in assay [3] it was 100 to 1000 nM; in assay [4] it was greater than 1000 nM. The molecule also came in with a concentration giving a half-maximal response (EC50) in assay [5] of less than 100 nM.
With `Cc1ccccc1-c1nc2c(C)cccc2cc1Cn1nc(-c2cc(O)cc(F)c2)c2c(N)ncnc21` [Compound 8], the IC50 in assay [1] is less than 100 nM; in assay [2], less than 100 nM; in assay [3], greater than 1000 nM; in assay [4] it was greater than 1000 nM. In addition, in assay [5], the EC50 is less than 100 nM.
For the molecule `Nc1nc2ccc(-c3nn(Cc4cc5ccccc5nc4CCN4CCCC4)c4ncnc(N)c34)cc2s1` [Compound 167], the IC50 is less than 100 nM in assay [1], less than 100 nM in assay [2], less than 100 nM in assay [3] and 100 to 1000 nM in assay [4]. In assay [5], this molecule displayed an EC50 of less than 100 nM.
With `CC(=O)Nc1nc2ccc(-c3nn(Cc4cc5ccccc5nc4-c4ccccc4C)c4ncnc(N)c34)cc2s1` [Compound 84], the half-inhibitory concentration (IC50) in assay [1] was less than 100 nM; in assay [2] it was less than 100 nM; in assay [3], greater than 1000 nM; in assay [4], greater than 1000 nM. The same molecule displayed a 50% effective concentration (EC50) in assay [5] of less than 100 nM.
`Nc1ccnc2c1c(-c1cccc(O)c1)nn2Cc1cc2ccccc2nc1-c1cccnc1` [Compound 77]: the IC50 is less than 100 nM in assay [1], greater than 1000 nM in assay [2], greater than 1000 nM in assay [3] and greater than 1000 nM in assay [4]. The concentration for a half-maximal effect (EC50) in assay [5] was less than 100 nM.
`Nc1ncnc2c1c(-c1cc(O)cc(F)c1)nn2Cc1cc2ccccc2nc1N1CCOCC1` [Compound 63]: the IC50 in assay [1] is less than 100 nM; in assay [2], 100 to 1000 nM; in assay [3], greater than 1000 nM; in assay [4] it was greater than 1000 nM. The 50% effective concentration (EC50) in assay [5] is less than 100 nM.
As for `CC(=O)Nc1nc2ccc(-c3nn(Cc4cc5ccccc5nc4-c4ccccc4)c4ncnc(N)c34)cc2s1` [Compound 92], the IC50 was less than 100 nM in assay [1], less than 100 nM in assay [2], greater than 1000 nM in assay [3] and greater than 1000 nM in assay [4]. The molecule also showed a 50% effective concentration (EC50) in assay [5] of less than 100 nM.
As for `Cc1ccccc1-c1nc2ccccc2cc1Cn1nc(-c2ccc3cc(N)sc3c2)c2c(N)ncnc21` [Compound 86], the IC50 in assay [1] is less than 100 nM; in assay [2], less than 100 nM; in assay [3], greater than 1000 nM; in assay [4], greater than 1000 nM. In assay [5], this molecule showed an EC50 of 100 to 1000 nM.
As to `CN1CCN(c2nc3ccccc3cc2Cn2nc(-c3cnc4[nH]ccc4c3)c3c(N)ncnc32)CC1` [Compound 74], the concentration for half-maximal inhibition (IC50) in assay [1] was less than 100 nM; in assay [2], greater than 1000 nM; in assay [3], greater than 1000 nM; in assay [4], 100 to 1000 nM. For the same molecule, the EC50 in assay [5] is less than 100 nM.
As for `Nc1ncc(-c2nn(Cc3cc4ccccc4nc3-c3ccccc3F)c3nccc(N)c23)cn1` [Compound 158], the concentration for half-maximal inhibition (IC50) in assay [1], in assay [2], in assay [3] and in assay [4] was greater than 1000 nM throughout. The molecule also gave an EC50 in assay [5] greater than 1000 nM.
Consider `CC(C)N(C)c1nc2ccccc2cc1Cn1nc(-c2cc(O)cc(F)c2)c2c(N)ncnc21` [Compound 52], for which the IC50 in assay [1] was less than 100 nM; in assay [2], 100 to 1000 nM; in assay [3] it was 100 to 1000 nM; in assay [4], 100 to 1000 nM. For the same molecule, the concentration for a half-maximal effect (EC50) in assay [5] is less than 100 nM.
Regarding `Nc1ncnc2c1c(-c1cccc(O)c1)nn2Cc1cc2ccccc2nc1N1CCOCC1` [Compound 64], the half-maximal inhibitory concentration (IC50) in assay [1] is less than 100 nM; in assay [2] it was 100 to 1000 nM; in assay [3], greater than 1000 nM; in assay [4], greater than 1000 nM. The EC50 in assay [5] is less than 100 nM.
On to `Nc1nc2cc(-c3nn(Cc4cc5ccccc5nc4N4CCCC4)c4ncnc(N)c34)ccc2[nH]1` [Compound 153], for which the half-inhibitory concentration (IC50) in assay [1] is less than 100 nM; in assay [2], less than 100 nM; in assay [3] it was less than 100 nM; in assay [4] it was 100 to 1000 nM. The concentration giving a half-maximal response (EC50) in assay [5] fell in the range of 100 to 1000 nM.
In the case of `Nc1nc2ccc(-c3nn(Cc4cc5ccccc5nc4-c4ccccc4C(F)(F)F)c4ncnc(N)c34)cc2[nH]1` [Compound 181], the IC50 in assay [1] was less than 100 nM; in assay [2] it was less than 100 nM; in assay [3] it was greater than 1000 nM; in assay [4], greater than 1000 nM. Further, the EC50 in assay [5] lay within 100 to 1000 nM.
As for `Nc1ccc2cc(-c3nn(Cc4cc5ccccc5nc4-c4ccccc4)c4ncnc(N)c34)ccc2n1` [Compound 144], the 50% inhibitory concentration (IC50) is less than 100 nM in assay [1], less than 100 nM in assay [2], 100 to 1000 nM in assay [3] and greater than 1000 nM in assay [4]. The molecule also came in with an EC50 in assay [5] of less than 100 nM.
